From ChEMBL document CHEMBL4138295, “Late-Stage Microsomal Oxidation Reduces Drug-Drug Interaction and Identifies Phosphodiesterase 2A Inhibitor PF-06815189” (ACS Med Chem Lett, 2018)
Values belong to the molecule of their own block, whether it stands above or below them. Calls of active or inactive are those of the source. The rule behind the calls is not given here.

What was measured:
[1] = target: cGMP-dependent 3',5'-cyclic phosphodiesterase (Homo sapiens, UniProt O00408); test: Inhibition of human PDE2A1 using 3',5'-[3H]cGMP as substrate measured after 30 mins by Yttrium silicate scintillation proximity assay
cGMP-dependent 3',5'-cyclic phosphodiesterase, sequence (O00408 whole entry): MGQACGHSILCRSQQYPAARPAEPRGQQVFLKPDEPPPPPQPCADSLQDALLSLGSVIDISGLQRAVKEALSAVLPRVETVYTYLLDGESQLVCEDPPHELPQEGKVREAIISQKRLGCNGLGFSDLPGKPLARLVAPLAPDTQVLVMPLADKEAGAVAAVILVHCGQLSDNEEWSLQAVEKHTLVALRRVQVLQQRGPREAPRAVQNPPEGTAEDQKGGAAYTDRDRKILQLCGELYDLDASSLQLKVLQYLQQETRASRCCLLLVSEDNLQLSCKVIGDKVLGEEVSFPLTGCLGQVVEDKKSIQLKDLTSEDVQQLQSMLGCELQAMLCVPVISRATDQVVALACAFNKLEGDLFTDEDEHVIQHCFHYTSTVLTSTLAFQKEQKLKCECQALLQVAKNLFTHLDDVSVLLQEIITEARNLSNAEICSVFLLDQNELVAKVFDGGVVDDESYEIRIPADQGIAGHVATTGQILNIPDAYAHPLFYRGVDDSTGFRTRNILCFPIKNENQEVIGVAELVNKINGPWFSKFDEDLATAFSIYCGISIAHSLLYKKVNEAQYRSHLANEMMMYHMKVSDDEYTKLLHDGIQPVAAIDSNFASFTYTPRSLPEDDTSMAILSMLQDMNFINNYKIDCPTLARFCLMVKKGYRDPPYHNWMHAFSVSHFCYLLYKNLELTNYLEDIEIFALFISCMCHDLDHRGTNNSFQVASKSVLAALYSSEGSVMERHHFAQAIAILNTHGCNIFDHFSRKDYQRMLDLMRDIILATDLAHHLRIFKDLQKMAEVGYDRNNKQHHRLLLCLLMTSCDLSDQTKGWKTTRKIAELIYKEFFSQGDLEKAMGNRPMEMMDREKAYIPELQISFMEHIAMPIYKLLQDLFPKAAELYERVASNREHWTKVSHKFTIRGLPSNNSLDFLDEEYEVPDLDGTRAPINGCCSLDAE

[2] = Drug metabolism in cynomolgus monkey liver microsomes assessed as PF-06815189 formation at 20 uM measured after 50 mins by UHPLC-UV analysis; type: ADME, Macaca fascicularis, microsome
[3] = Drug metabolism in cynomolgus monkey liver microsomes assessed as 5-(hydroxymethyl)-7-(3-(hydroxymethyl)-1-methyl-5-(4-(trifluoromethyl)phenyl)-1H-pyrazol-4-yl)-2-methylimidazo[1,5-f][1,2,4]triazin-4(3H)-one formation at 20 uM measured after 50 mins by UHPLC-UV analysis; type: ADME, Macaca fascicularis, microsome
[4] = target: Cytochrome P450 3A4 (Homo sapiens, UniProt P08684); test: Binding affinity to recombinant human CYP3A4 expressed in microsomes at 1 uM after 3 to 60 mins in presence of NADPH by HPLC-MS analysis; type: ADME
Cytochrome P450 3A4, sequence (P08684 whole entry): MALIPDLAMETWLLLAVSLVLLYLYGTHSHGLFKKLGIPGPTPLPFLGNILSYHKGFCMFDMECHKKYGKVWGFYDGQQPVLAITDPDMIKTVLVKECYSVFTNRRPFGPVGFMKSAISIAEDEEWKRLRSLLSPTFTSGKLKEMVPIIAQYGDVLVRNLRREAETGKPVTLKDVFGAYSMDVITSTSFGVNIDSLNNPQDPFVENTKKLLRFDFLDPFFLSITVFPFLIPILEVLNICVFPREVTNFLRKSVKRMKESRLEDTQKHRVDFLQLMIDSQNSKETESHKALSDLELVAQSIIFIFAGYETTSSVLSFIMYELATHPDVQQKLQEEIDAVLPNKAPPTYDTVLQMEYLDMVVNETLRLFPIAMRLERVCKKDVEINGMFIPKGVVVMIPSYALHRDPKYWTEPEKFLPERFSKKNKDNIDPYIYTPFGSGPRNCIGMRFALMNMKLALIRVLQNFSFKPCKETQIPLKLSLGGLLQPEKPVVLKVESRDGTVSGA

[5] = Drug metabolism in cynomolgus monkey liver microsomes assessed as 7-(3-(hydroxymethyl)-1-methyl-5-(4-(trifluoromethyl)phenyl)-1H-pyrazol-4-yl)-2,5-dimethylimidazo[1,5-f][1,2,4]triazin-4(3H)-one formation at 20 uM measured after 50 mins by UHPLC-UV analysis; type: ADME, Macaca fascicularis, microsome
[6] = Apparent permeability in RRCK cells; type: ADME, cell-based, Canis lupus familiaris; details: dog, mdckii-le
[7] = Oral bioavailability in Beagle dog at 5 mg/kg administered via gavage by LC-MS/MS analysis; type: ADME, organism-based, Canis lupus familiaris; details: in vivo
[8] = species: Homo sapiens; test: Inhibition of sodium channel site 2 (unknown origin) at 10 uM relative to control
[9] = system: Canis familiaris; test: Volume of distribution at steady state in Beagle dog at 1 mg/kg, iv or po via gavage by LC-MS/MS analysis; type: ADME, organism-based, Canis lupus familiaris; details: in vivo
[10] = system: Rattus norvegicus; test: Oral bioavailability in Wistar-Han rat at 5 mg/kg administered via gavage by LC-MS/MS analysis; type: ADME, organism-based; details: in vivo
[11] = system: Cavia porcellus; test: Inhibition of histamine-mediated increase in vascular permeability in guinea pig assessed as reduction in extravasation of Evan's blue dye-labeled albumin from blood to skin at 0.3 to 10 mg/kg, sc measured after 30 mins by spectrophotometric method; type: functional, organism-based
[12] = Oral bioavailability in cynomolgus monkey at 5 mg/kg administered via gavage by LC-MS/MS analysis; type: ADME, organism-based, Macaca fascicularis; details: in vivo
[13] = Drug recovery in cynomolgus monkey at 1 mg/kg, iv or po via gavage measured up to 24 hrs by LC-MS/MS analysis; type: ADME, organism-based, Macaca fascicularis; details: in vivo, read-out: Drug recovery
[14] = system: Cynomolgus monkey; test: Half life in cynomolgus monkey at 1 mg/kg, iv or po via gavage by LC-MS/MS analysis; type: ADME, organism-based, Macaca fascicularis; details: in vivo
[15] = target: cGMP-specific 3',5'-cyclic phosphodiesterase (Homo sapiens, UniProt O76074); test: Inhibition of PDE5A1 (unknown origin) using 3',5'-[3H]cGMP as substrate measured after 30 mins by Yttrium silicate scintillation proximity assay
[16] = Half life in Wistar-Han rat at 1 mg/kg, iv or 5 mg/kg, po via gavage by LC-MS/MS analysis; type: ADME, organism-based; details: in vivo
[17] = system: Rattus norvegicus; test: Volume of distribution at steady state in Wistar-Han rat at 1 mg/kg, iv or 5 mg/kg, po via gavage by LC-MS/MS analysis; type: ADME, organism-based; details: in vivo
[18] = species: Homo sapiens; test: Selectivity ratio of IC50 for PDE5A1 (unknown origin) to IC50 for human PDE2A1
[19] = Drug recovery in Beagle dog at 1 mg/kg, iv or po via gavage measured up to 24 hrs by LC-MS/MS analysis; type: ADME, organism-based, Canis lupus familiaris; details: in vivo, read-out: Drug recovery
[20] = system: Canis familiaris; test: Half life in Beagle dog at 1 mg/kg, iv or po via gavage by LC-MS/MS analysis; type: ADME, organism-based, Canis lupus familiaris; details: in vivo
[21] = system: Cynomolgus monkey; test: Volume of distribution at steady state in cynomolgus monkey at 1 mg/kg, iv or po via gavage by LC-MS/MS analysis; type: ADME, organism-based, Macaca fascicularis; details: in vivo
[22] = Drug recovery in Wistar-Han rat at 1 mg/kg, iv or 5 mg/kg, po via gavage measured up to 24 hrs by LC-MS/MS analysis; type: ADME, organism-based; details: in vivo, read-out: Drug recovery

- IC50 [1]: 0.6 nM
- Drug metabolism [2]: Metabolite_Detected
- Drug metabolism [3]: Metabolite_Detected
- Activity [4]: Active
- Drug metabolism [5]: Metabolite_Detected
SMILES: Cc1nn2c(-c3c(C)nn(C)c3-c3ccc(C(F)(F)F)cc3)nc(C)c2c(=O)[nH]1

- IC50 [1]: 6.9 nM
- Papp [6]: 17 ×10⁻⁶ cm/s
SMILES: Cc1nn2c(-c3c(CO)nn(C)c3-c3ccc(C(F)(F)F)cc3)nc(C)c2c(=O)[nH]1

- Papp [6]: 5 ×10⁻⁶ cm/s
SMILES: Cc1nn2c(-c3c(CO)nn(C)c3-c3ccc(C(F)(F)F)cc3)nc(CO)c2c(=O)[nH]1

- IC50 [1]: 0.4 nM
- bioavailability [7]: 79%
- inhibition [8]: 17%
- Vdss [9]: 0.4 L/kg
- F [10]: 50%
- bioavailability [12]: 61%
- dose excreted at 24 h [13]: 26%
- t1/2 [14]: 3.6 h
- IC50 [15]: 2440 nM
- half-life [16]: 72 min
- Vdss [17]: 1.5 L/kg
- Ratio IC50 [18]: 1000
- dose excreted at 24 h [19]: 48%
- Papp [6]: 8 ×10⁻⁶ cm/s
- t1/2 [20]: 4.8 h
- Vdss [21]: 0.8 L/kg
- dose excreted at 24 h [22]: 22%
SMILES: Cc1nn2c(-c3c(C)nn(C)c3-c3ccc(C(F)(F)F)cc3)nc(CO)c2c(=O)[nH]1
- inhibition [11]: Active
